Assay results from PubChem BioAssay (NCI).
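Five concentrations, 48 hours, 96-well plates. TGI is the concentration that stops growth completely.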

What was measured:
Experiment in all cases: NCI tumour cell line growth inhibition, 48 h
[1] = system: BT-549 breast
[2] = system: COLO 205 colon
[3] = system: HCC-2998 colon
[4] = system: HCT-116 colon
[5] = system: IGROV1 ovarian
[6] = system: K-562 leukemia
[7] = system: NCI-H522 lung
[8] = system: NCI/ADR-RES ovarian
[9] = system: OVCAR-8 ovarian
[10] = system: RXF 393 renal
[11] = system: SK-MEL-2 melanoma
[12] = system: T-47D breast
[13] = system: TK-10 renal
[14] = system: U251 CNS

For `O=C1CSC2(CC(/C=C/c3cccc([N+](=O)[O-])c3)=NN2c2cccc(S(=O)(=O)O)c2)N1c1nc2ccccc2s1` (centres undefined), which TGI [1] is on record?
Its TGI is 32.7 µM.

And the TGI [2]?
The TGI was > 100 µM.

What about the TGI [3] of the same molecule?
The TGI was > 100 µM.

What about the TGI [4] of the same molecule?
Its TGI is > 100 µM.

And the TGI [5]?
The TGI was 36.8 µM.

What about the TGI [6] of the same molecule?
Its TGI is > 100 µM.

And the TGI [7]?
The TGI was 34.1 µM.

What about the TGI [8] of the same molecule?
Its TGI is 70.1 µM.

What about the TGI [9] of the same molecule?
The TGI was 30.7 µM.

What about the TGI [10] of the same molecule?
Its TGI is > 100 µM.

And the TGI [11]?
Its TGI is 47.9 µM.

And the TGI [12]?
Its TGI is 73.8 µM.

What about the TGI [13] of the same molecule?
Its TGI is 39.8 µM.

What about the TGI [14] of the same molecule?
The TGI was 36.3 µM.

What does the source list for `CC(=O)OCC(=O)O[C@@H]1[C@H]2[C@@H](OC(=O)c3ccccc3)[C@@H](C)C[C@]2(O)[C@H](OC(C)=O)[C@@]2(C)C(OC(C)=O)[C@]1(OC(C)=O)C[C@H]1C(=O)C(C)(C)C[C@@H]12` (some centres undefined)?
TGI [1]: > 50 µM; TGI [2]: > 50 µM; TGI [3]: > 50 µM; TGI [4]: > 50 µM; TGI [5]: > 50 µM; TGI [6]: > 50 µM; TGI [7]: > 50 µM; TGI [8]: > 50 µM; TGI [9]: > 50 µM; TGI [10]: > 50 µM; TGI [11]: > 50 µM; TGI [12]: > 50 µM; TGI [13]: > 50 µM; TGI [14]: > 50 µM

How did the TGI [1] turn out when `N#Cc1c2c(c(N)oc1=O)C(c1ccccc1)CC(=O)N2` (centres undefined) was run?
Its TGI is > 100 µM.

What about the TGI [2] of the same molecule?
Its TGI is > 100 µM.

And the TGI [3]?
Its TGI is > 100 µM.

And the TGI [4]?
Its TGI is > 100 µM.

What about the TGI [5] of the same molecule?
Its TGI is > 100 µM.

And the TGI [6]?
The TGI was > 100 µM.

And the TGI [7]?
The TGI was > 100 µM.

What about the TGI [8] of the same molecule?
The TGI was > 100 µM.

What about the TGI [9] of the same molecule?
Its TGI is > 100 µM.

And the TGI [10]?
The TGI was > 100 µM.

And the TGI [11]?
Its TGI is > 100 µM.

And the TGI [12]?
The TGI was > 100 µM.

And the TGI [13]?
The TGI was > 100 µM.

What about the TGI [14] of the same molecule?
Its TGI is > 100 µM.

For `O=C(c1cccs1)N(C(=S)OCCOc1ccccc1)c1ccccc1`, which TGI [1] is on record?
The TGI was 65.1 µM.

What about the TGI [2] of the same molecule?
Its TGI is 42.4 µM.

What about the TGI [3] of the same molecule?
The TGI was 59.4 µM.

And the TGI [4]?
The TGI was 44.6 µM.

And the TGI [5]?
Its TGI is 79.2 µM.

What about the TGI [6] of the same molecule?
The TGI was > 100 µM.

And the TGI [7]?
The TGI was 45.1 µM.

What about the TGI [8] of the same molecule?
The TGI was 57.7 µM.

What about the TGI [9] of the same molecule?
Its TGI is 87.8 µM.

And the TGI [10]?
Its TGI is 51.9 µM.

What about the TGI [11] of the same molecule?
The TGI was 55.6 µM.

What about the TGI [12] of the same molecule?
Its TGI is > 100 µM.

And the TGI [13]?
Its TGI is > 100 µM.

And the TGI [14]?
Its TGI is 48.8 µM.

With `CC1(C)OC(=S)N(c2ccccc2)C12C=Cc1ccccc1O2` (centres undefined) as the molecule, how does the TGI [1] read?
Its TGI is > 100 µM.

And the TGI [2]?
Its TGI is > 100 µM.

And the TGI [3]?
The TGI was > 100 µM.

What about the TGI [4] of the same molecule?
The TGI was > 100 µM.

And the TGI [5]?
The TGI was > 100 µM.

What about the TGI [6] of the same molecule?
The TGI was > 100 µM.

And the TGI [7]?
Its TGI is > 100 µM.

And the TGI [8]?
Its TGI is > 100 µM.

And the TGI [9]?
Its TGI is > 100 µM.

And the TGI [10]?
Its TGI is > 100 µM.

And the TGI [11]?
Its TGI is > 100 µM.

And the TGI [12]?
Its TGI is 82.4 µM.

What about the TGI [13] of the same molecule?
Its TGI is > 100 µM.

What about the TGI [14] of the same molecule?
The TGI was > 100 µM.

What does the source list for `CCOC(=O)N1N=C(/C(C)=N/OC)C(C)S1=O` (centres undefined)?
TGI [1]: > 100 µM; TGI [2]: > 100 µM; TGI [3]: > 100 µM; TGI [4]: > 100 µM; TGI [5]: > 100 µM; TGI [6]: > 100 µM; TGI [7]: > 100 µM; TGI [8]: > 100 µM; TGI [9]: > 100 µM; TGI [10]: > 100 µM; TGI [11]: > 100 µM; TGI [12]: > 100 µM; TGI [13]: > 100 µM; TGI [14]: > 100 µM

`CCOC(=O)C(=CNc1ccc(NC2=NCC(C)S2)cc1)C(=O)OCC` (centres undefined) was tested. Which TGI [1] did it give?
The TGI was 48.9 µM.

What about the TGI [2] of the same molecule?
The TGI was > 100 µM.

What about the TGI [3] of the same molecule?
Its TGI is > 100 µM.

What about the TGI [4] of the same molecule?
Its TGI is > 100 µM.

What about the TGI [5] of the same molecule?
The TGI was > 100 µM.

And the TGI [6]?
Its TGI is 4.69 µM.

What about the TGI [7] of the same molecule?
The TGI was 36.8 µM.

What about the TGI [8] of the same molecule?
The TGI was 95.1 µM.

And the TGI [9]?
The TGI was > 100 µM.

What about the TGI [10] of the same molecule?
Its TGI is 97.1 µM.

And the TGI [11]?
The TGI was 50.7 µM.

And the TGI [12]?
Its TGI is > 84.5 µM.

What about the TGI [13] of the same molecule?
The TGI was > 100 µM.

And the TGI [14]?
Its TGI is > 100 µM.

`COC(=O)c1c(C)n([O-])c2cc(Cl)c(Cl)cc2[n+]1=O` was tested. Which TGI [1] did it give?
The TGI was > 100 µM.

What about the TGI [2] of the same molecule?
The TGI was 25.8 µM.

And the TGI [3]?
The TGI was 32.1 µM.

And the TGI [4]?
Its TGI is > 100 µM.

What about the TGI [5] of the same molecule?
The TGI was 19.9 µM.

And the TGI [6]?
Its TGI is > 100 µM.

And the TGI [7]?
Its TGI is 25.4 µM.

And the TGI [8]?
The TGI was 49.5 µM.

And the TGI [9]?
The TGI was 59.3 µM.

What about the TGI [10] of the same molecule?
The TGI was > 100 µM.

And the TGI [11]?
Its TGI is 82.1 µM.

What about the TGI [12] of the same molecule?
The TGI was > 100 µM.

And the TGI [13]?
Its TGI is 61.5 µM.

And the TGI [14]?
The TGI was > 100 µM.

With `Nc1ccc2c(c1)nc1n2C(c2c(F)cccc2F)SC1` (centres undefined) as the molecule, how does the TGI [1] read?
Its TGI is > 100 µM.

And the TGI [2]?
The TGI was > 100 µM.

What about the TGI [3] of the same molecule?
Its TGI is > 100 µM.

And the TGI [4]?
Its TGI is > 100 µM.

What about the TGI [5] of the same molecule?
Its TGI is > 100 µM.

And the TGI [6]?
Its TGI is > 100 µM.

What about the TGI [7] of the same molecule?
Its TGI is > 100 µM.

And the TGI [8]?
The TGI was > 100 µM.

What about the TGI [9] of the same molecule?
The TGI was > 100 µM.

And the TGI [10]?
Its TGI is > 100 µM.

What about the TGI [11] of the same molecule?
The TGI was > 100 µM.

And the TGI [12]?
The TGI was > 100 µM.

And the TGI [13]?
Its TGI is > 100 µM.

And the TGI [14]?
Its TGI is > 100 µM.

For `CCOC(=O)c1sc2nc(SC)nc3c2c1NCN3c1ccc2c(c1)OCO2`, which TGI [1] is on record?
Its TGI is > 100 µM.

What about the TGI [2] of the same molecule?
Its TGI is > 100 µM.

What about the TGI [3] of the same molecule?
Its TGI is > 100 µM.

What about the TGI [4] of the same molecule?
Its TGI is > 100 µM.

And the TGI [5]?
Its TGI is > 100 µM.

What about the TGI [6] of the same molecule?
Its TGI is > 100 µM.

What about the TGI [7] of the same molecule?
The TGI was 98.1 µM.

What about the TGI [8] of the same molecule?
The TGI was 30.8 µM.

What about the TGI [9] of the same molecule?
The TGI was 20.1 µM.

What about the TGI [10] of the same molecule?
The TGI was 10.3 µM.

And the TGI [11]?
The TGI was 58.8 µM.

What about the TGI [12] of the same molecule?
Its TGI is > 100 µM.

What about the TGI [13] of the same molecule?
The TGI was 43.7 µM.

And the TGI [14]?
Its TGI is 23.1 µM.

With `COC(=O)[C@]1(NC(=O)c2ccccc2)C[C@H]1C=O` as the molecule, how does the TGI [1] read?
Its TGI is > 100 µM.

And the TGI [2]?
The TGI was > 100 µM.

What about the TGI [3] of the same molecule?
Its TGI is > 100 µM.

What about the TGI [4] of the same molecule?
The TGI was > 100 µM.

And the TGI [5]?
The TGI was > 100 µM.

What about the TGI [6] of the same molecule?
The TGI was > 100 µM.

And the TGI [7]?
Its TGI is > 100 µM.

What about the TGI [8] of the same molecule?
The TGI was > 100 µM.

And the TGI [9]?
The TGI was > 100 µM.

And the TGI [10]?
The TGI was > 100 µM.

And the TGI [11]?
Its TGI is > 100 µM.

And the TGI [12]?
The TGI was > 100 µM.

What about the TGI [13] of the same molecule?
Its TGI is > 100 µM.

And the TGI [14]?
The TGI was > 100 µM.
